Laboratory results as given in ChEMBL document CHEMBL4507263, “Data for DCP probe BAY-474” (2021).

How the values were obtained:
[1] = biological target: Serine/threonine-protein kinase WNK2 (Homo sapiens) (UniProt Q9Y3S1); conditions: Compound concentration 1000.0 nM
[2] = biological target: Serine/threonine-protein kinase pim-2 (Homo sapiens) (UniProt Q9P1W9); conditions: Compound concentration 1000.0 nM
[3] = test system: Fibroblast growth factor receptor 3 (Homo sapiens), P22607 [G697C]; conditions: Compound concentration 1000.0 nM
[4] = biological target: Mitogen-activated protein kinase kinase kinase 12 (Homo sapiens) (UniProt Q12852); conditions: Compound concentration 1000.0 nM
[5] = biological target: Serine/threonine-protein kinase Nek10 (Homo sapiens) (UniProt Q6ZWH5); conditions: Compound concentration 1000.0 nM
[6] = biological target: Serine/threonine-protein kinase 17B (Homo sapiens) (UniProt O94768); conditions: Compound concentration 1000.0 nM
[7] = test system: Mast/stem cell growth factor receptor Kit (Homo sapiens), P10721 [D816V]; conditions: Compound concentration 1000.0 nM
[8] = biological target: Ephrin type-A receptor 3 (Homo sapiens) (UniProt P29320); conditions: Compound concentration 1000.0 nM
[9] = test system: Tyrosine-protein kinase ABL1 (Homo sapiens), P00519 [H396P]; conditions: Compound concentration 1000.0 nM
[10] = biological target: Homeodomain-interacting protein kinase 4 (Homo sapiens) (UniProt Q8NE63); conditions: Compound concentration 1000.0 nM
[11] = biological target: Cyclin-dependent kinase 14 (Homo sapiens) (UniProt O94921); conditions: Compound concentration 1000.0 nM
[12] = test system: ALK tyrosine kinase receptor (Homo sapiens), Q9UM73 [C1156Y]; conditions: Compound concentration 1000.0 nM
[13] = biological target: Serine/threonine-protein kinase Nek1 (Homo sapiens) (UniProt Q96PY6); conditions: Compound concentration 1000.0 nM
[14] = biological target: Tyrosine-protein kinase Fer (Homo sapiens) (UniProt P16591); conditions: Compound concentration 1000.0 nM
[15] = biological target: Dual specificity protein kinase CLK4 (Homo sapiens) (UniProt Q9HAZ1); conditions: Compound concentration 1000.0 nM
[16] = biological target: Serine/threonine-protein kinase SBK1 (Homo sapiens) (UniProt Q52WX2); conditions: Compound concentration 1000.0 nM
[17] = biological target: Myosin light chain kinase 2, skeletal/cardiac muscle (Homo sapiens) (UniProt Q9H1R3); conditions: Compound concentration 1000.0 nM
[18] = biological target: Mitogen-activated protein kinase 15 (Homo sapiens) (UniProt Q8TD08); conditions: Compound concentration 1000.0 nM
[19] = biological target: Megakaryocyte-associated tyrosine-protein kinase (Homo sapiens) (UniProt P42679); conditions: Compound concentration 1000.0 nM
[20] = biological target: Aurora kinase B (Homo sapiens) (UniProt Q96GD4); conditions: Compound concentration 1000.0 nM
[21] = biological target: Vascular endothelial growth factor receptor 1 (Homo sapiens) (UniProt P17948); conditions: Compound concentration 1000.0 nM
[22] = biological target: Death-associated protein kinase 2 (Homo sapiens) (UniProt Q9UIK4); conditions: Compound concentration 1000.0 nM
[23] = biological target: Serine/threonine-protein kinase 25 (Homo sapiens) (UniProt O00506); conditions: Compound concentration 1000.0 nM
[24] = biological target: T1, cGMP-dependent protein kinase 1 (Homo sapiens) (UniProt Q13976); conditions: Compound concentration 1000.0 nM
T1 sequence (whole entry): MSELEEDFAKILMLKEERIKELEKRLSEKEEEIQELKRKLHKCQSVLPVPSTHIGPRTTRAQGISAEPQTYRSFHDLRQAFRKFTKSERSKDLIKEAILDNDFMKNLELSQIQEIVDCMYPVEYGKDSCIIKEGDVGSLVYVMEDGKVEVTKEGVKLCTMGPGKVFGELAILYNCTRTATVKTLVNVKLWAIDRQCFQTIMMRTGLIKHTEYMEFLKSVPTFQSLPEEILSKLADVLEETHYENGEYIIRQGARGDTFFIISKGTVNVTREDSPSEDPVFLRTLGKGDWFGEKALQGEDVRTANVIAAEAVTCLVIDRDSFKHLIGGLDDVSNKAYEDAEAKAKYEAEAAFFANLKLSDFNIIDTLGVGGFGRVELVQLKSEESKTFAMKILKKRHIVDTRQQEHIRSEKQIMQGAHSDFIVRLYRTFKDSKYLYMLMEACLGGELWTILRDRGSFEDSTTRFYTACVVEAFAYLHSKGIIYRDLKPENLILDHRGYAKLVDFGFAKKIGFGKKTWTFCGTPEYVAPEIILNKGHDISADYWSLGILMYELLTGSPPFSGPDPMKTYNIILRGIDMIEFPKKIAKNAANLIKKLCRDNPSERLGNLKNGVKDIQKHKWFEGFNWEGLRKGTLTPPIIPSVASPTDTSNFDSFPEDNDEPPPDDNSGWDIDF

[25] = biological target: Dual specificity tyrosine-phosphorylation-regulated kinase 2 (Homo sapiens) (UniProt Q92630); conditions: Compound concentration 1000.0 nM
[26] = biological target: Platelet-derived growth factor receptor beta (Homo sapiens) (UniProt P09619); conditions: Compound concentration 1000.0 nM
[27] = biological target: Serine/threonine-protein kinase PLK4 (Homo sapiens) (UniProt O00444); conditions: Compound concentration 1000.0 nM
[28] = biological target: Cytoplasmic tyrosine-protein kinase BMX (Homo sapiens) (UniProt P51813); experiment: Bmx (h) Millipore kinase activity assay; conditions: Compound concentration 1.0 uM
[29] = biological target: Protein kinase C alpha type (Homo sapiens) (UniProt P17252); experiment: PKCalpha (h) Millipore kinase activity assay; conditions: Compound concentration 1.0 uM
[30] = biological target: Sodium-dependent dopamine transporter (Homo sapiens) (UniProt Q01959); conditions: Compound concentration 10.0 uM
[31] = biological target: Delta-type opioid receptor (Homo sapiens) (UniProt P41143); conditions: Compound concentration 10.0 uM
[32] = biological target: Macrophage-stimulating protein receptor (Homo sapiens) (UniProt Q04912); experiment: Ron (h) Millipore kinase activity assay; conditions: Compound concentration 1.0 uM
[33] = biological target: LIM domain kinase 1 (Homo sapiens) (UniProt P53667); experiment: LIMK1 (h) Millipore kinase activity assay; conditions: Compound concentration 1.0 uM
[34] = biological target: Tyrosine-protein kinase Lyn (Homo sapiens) (UniProt P07948); experiment: Lyn (h) Millipore kinase activity assay; conditions: Compound concentration 1.0 uM
[35] = biological target: Cyclin-dependent kinase 2/cyclin E (Homo sapiens) (UniProt P24864+P24941+O96020); experiment: CDK2/cyclinE (h) Millipore kinase activity assay; format: protein-complex assay; conditions: Compound concentration 1.0 uM
[36] = biological target: Tyrosine-protein kinase Mer (Homo sapiens) (UniProt Q12866); experiment: Mer (h) Millipore kinase activity assay; conditions: Compound concentration 1.0 uM
[37] = biological target: Tyrosine-protein kinase JAK3 (Homo sapiens) (UniProt P52333); experiment: JAK3 (h) Millipore kinase activity assay; conditions: Compound concentration 1.0 uM
Tyrosine-protein kinase JAK3 (Homo sapiens), sequence (P52333 whole entry): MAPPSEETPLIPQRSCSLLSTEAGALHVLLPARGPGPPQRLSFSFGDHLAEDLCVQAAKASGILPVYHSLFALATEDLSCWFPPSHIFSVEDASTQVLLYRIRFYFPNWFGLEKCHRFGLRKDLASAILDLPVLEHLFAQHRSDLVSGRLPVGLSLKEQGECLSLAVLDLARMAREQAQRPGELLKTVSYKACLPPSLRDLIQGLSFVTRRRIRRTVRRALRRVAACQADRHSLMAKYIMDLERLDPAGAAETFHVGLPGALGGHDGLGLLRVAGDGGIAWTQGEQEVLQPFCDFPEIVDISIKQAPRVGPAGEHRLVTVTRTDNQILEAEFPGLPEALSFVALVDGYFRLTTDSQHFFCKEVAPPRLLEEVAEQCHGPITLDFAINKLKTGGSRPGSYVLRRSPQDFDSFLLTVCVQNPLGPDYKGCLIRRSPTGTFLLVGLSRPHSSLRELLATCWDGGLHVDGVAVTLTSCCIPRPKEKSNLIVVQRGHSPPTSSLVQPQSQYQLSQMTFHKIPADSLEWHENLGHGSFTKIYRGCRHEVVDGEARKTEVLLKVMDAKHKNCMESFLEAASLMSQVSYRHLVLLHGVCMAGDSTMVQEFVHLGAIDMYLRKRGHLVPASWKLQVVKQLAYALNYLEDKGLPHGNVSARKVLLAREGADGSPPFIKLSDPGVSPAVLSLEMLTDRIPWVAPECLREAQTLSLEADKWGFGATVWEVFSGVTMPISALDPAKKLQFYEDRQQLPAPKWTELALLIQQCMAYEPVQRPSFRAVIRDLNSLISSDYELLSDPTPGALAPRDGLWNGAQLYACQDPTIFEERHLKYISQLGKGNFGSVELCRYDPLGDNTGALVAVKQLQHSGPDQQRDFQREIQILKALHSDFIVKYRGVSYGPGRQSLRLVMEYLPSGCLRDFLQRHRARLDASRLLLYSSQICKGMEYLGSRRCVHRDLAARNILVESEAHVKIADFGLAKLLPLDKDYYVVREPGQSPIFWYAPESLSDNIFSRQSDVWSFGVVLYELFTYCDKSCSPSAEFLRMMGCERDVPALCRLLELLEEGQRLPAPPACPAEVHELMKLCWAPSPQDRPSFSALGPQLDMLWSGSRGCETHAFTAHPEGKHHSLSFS

Serine/threonine-protein kinase pim-2 (Homo sapiens), sequence (Q9P1W9 whole entry, looked up): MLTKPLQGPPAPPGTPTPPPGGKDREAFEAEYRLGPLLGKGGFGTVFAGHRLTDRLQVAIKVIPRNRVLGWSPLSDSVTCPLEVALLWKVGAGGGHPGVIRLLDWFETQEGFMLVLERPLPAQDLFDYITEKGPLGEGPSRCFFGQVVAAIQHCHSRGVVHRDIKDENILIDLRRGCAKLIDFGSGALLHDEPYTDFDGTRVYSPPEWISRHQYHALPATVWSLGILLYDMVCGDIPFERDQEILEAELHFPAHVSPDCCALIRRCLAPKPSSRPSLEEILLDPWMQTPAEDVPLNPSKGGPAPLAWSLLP
Delta-type opioid receptor (Homo sapiens), sequence (P41143 whole entry): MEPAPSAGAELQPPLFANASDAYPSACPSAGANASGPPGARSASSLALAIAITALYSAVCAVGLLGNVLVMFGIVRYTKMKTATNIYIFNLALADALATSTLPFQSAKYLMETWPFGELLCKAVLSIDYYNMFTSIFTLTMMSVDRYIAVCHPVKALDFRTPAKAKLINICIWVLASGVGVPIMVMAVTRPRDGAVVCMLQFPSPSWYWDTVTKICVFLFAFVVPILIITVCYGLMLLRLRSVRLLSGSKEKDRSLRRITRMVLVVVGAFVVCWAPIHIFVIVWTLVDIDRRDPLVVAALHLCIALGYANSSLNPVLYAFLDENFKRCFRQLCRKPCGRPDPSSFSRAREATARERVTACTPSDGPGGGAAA
Cytoplasmic tyrosine-protein kinase BMX (Homo sapiens), sequence (P51813 whole entry, looked up): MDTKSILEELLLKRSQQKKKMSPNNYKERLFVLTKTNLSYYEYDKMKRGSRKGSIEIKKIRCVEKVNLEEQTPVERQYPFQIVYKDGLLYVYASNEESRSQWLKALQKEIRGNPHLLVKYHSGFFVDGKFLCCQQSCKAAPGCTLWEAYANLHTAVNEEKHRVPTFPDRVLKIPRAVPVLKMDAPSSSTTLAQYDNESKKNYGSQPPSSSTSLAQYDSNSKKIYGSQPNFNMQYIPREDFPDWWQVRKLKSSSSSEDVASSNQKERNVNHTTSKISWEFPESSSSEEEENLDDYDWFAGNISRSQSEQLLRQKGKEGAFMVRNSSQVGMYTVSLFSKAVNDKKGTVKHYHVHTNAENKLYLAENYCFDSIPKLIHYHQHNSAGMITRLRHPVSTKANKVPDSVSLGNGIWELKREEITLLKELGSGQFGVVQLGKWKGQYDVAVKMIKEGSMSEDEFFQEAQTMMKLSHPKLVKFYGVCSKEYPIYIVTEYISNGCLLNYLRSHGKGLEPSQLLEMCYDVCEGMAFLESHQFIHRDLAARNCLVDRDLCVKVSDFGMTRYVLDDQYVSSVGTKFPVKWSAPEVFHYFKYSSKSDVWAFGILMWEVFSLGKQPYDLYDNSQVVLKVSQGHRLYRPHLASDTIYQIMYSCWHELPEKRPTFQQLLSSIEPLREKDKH
Ephrin type-A receptor 3 (Homo sapiens), sequence (P29320 whole entry): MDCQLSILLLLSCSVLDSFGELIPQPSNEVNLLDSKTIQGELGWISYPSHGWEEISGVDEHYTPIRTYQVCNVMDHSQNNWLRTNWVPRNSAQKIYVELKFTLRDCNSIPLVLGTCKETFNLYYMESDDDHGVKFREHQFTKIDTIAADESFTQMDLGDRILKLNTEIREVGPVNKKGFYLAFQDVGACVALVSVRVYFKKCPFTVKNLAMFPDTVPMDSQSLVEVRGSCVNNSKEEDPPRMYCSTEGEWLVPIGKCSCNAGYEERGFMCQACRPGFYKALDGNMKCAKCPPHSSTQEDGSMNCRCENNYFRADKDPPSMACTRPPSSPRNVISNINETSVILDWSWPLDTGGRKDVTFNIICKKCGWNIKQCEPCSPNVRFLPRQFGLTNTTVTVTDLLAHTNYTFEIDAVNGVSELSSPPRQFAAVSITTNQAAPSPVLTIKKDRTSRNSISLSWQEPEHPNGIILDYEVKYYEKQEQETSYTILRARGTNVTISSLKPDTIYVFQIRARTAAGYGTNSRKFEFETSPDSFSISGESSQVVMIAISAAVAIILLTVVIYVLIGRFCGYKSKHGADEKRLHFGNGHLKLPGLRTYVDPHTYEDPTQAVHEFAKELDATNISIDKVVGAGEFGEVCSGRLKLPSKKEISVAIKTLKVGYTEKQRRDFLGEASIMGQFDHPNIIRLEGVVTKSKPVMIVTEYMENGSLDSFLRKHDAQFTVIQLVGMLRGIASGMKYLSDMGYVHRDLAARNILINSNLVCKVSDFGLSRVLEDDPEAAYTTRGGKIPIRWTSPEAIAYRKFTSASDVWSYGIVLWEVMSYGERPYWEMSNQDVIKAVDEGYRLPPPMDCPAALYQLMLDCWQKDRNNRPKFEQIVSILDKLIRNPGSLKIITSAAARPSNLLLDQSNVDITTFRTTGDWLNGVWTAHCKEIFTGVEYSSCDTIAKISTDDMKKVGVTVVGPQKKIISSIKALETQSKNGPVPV
Serine/threonine-protein kinase Nek1 (Homo sapiens), sequence (Q96PY6 whole entry): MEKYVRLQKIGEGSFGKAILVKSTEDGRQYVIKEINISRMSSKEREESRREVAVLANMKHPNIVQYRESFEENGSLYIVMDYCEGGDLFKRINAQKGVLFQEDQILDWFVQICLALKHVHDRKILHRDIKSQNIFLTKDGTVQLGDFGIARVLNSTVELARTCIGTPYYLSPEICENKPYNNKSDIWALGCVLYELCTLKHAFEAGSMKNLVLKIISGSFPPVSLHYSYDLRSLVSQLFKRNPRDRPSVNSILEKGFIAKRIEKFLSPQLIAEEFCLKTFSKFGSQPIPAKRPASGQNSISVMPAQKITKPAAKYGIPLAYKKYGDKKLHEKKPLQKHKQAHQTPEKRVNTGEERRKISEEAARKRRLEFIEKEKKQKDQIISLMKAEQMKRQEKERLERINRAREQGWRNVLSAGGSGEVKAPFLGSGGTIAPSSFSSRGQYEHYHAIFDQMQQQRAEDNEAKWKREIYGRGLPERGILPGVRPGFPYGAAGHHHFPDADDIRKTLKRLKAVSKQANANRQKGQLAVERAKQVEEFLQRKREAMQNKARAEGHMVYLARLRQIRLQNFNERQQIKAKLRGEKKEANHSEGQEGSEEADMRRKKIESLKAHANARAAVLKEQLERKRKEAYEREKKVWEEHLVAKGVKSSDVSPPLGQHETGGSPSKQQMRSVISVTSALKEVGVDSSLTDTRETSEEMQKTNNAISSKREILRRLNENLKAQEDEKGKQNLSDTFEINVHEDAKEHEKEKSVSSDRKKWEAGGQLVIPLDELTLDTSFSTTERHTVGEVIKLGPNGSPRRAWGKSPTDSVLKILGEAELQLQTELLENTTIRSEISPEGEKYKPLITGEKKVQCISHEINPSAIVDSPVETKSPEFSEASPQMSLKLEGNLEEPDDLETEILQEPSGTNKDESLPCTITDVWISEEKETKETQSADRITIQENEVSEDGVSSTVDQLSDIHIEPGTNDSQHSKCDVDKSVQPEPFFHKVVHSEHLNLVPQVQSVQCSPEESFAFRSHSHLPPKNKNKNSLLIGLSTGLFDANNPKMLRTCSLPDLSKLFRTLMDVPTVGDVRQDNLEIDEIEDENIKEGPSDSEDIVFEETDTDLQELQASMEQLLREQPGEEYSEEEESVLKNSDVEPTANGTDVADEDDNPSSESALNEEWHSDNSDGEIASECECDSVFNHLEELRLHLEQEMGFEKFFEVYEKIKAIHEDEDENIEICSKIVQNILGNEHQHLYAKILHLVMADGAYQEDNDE
Aurora kinase B (Homo sapiens), sequence (Q96GD4 whole entry): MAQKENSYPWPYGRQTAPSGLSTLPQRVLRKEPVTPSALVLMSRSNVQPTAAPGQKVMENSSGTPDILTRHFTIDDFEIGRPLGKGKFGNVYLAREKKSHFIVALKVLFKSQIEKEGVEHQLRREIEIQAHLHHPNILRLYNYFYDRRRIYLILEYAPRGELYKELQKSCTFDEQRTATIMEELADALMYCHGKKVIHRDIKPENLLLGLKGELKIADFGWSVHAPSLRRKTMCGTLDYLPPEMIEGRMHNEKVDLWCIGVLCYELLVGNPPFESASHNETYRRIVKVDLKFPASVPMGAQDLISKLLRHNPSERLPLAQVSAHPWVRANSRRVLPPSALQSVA

CC1=C(C#N)[C@@H](c2ccc3[nH]nc(C)c3c2)C(C#N)=C(c2ccc(Cl)cc2)N1 [BAY-827]
inactive: residual activity [1] 100% | residual activity [2] 100% | residual activity [3] 100% | residual activity [4] 72.2% | residual activity [5] 59.6% | residual activity [6] 100% | residual activity [7] 100% | residual activity [8] 100% | residual activity [9] 79.9% | residual activity [10] 88.1% | residual activity [11] 94.4% | residual activity [12] 100% | residual activity [13] 100% | residual activity [14] 97.9% | residual activity [15] 100% | residual activity [16] 100% | residual activity [17] 91.4% | residual activity [18] 100% | residual activity [19] 100% | residual activity [20] 82.9% | residual activity [21] 100% | residual activity [22] 100% | residual activity [23] 100% | residual activity [24] 86.9% | residual activity [25] 100% | residual activity [26] 100% | residual activity [27] 100%

CC1=C(C#N)C(c2ccc3[nH]nc(C)c3c2)C(C#N)=C(C)N1 [BAY-474]
inactive: inhibition [28] -7% | inhibition [29] 18% | inhibition [30] 0% | inhibition [31] 9% | inhibition [32] 8% | inhibition [33] 2% | inhibition [34] -1% | inhibition [35] 9% | inhibition [36] 12% | inhibition [37] -7%
